Experimental data: ChEMBL document CHEMBL4513149, “CO-ADD screening of MMV (CH) - MMV compounds” (2021)

What was measured:
Candida albicans [1] = test: microbe, parasite or virus in culture; details: ATCC 90028, ASSAY_TEST Inhibition of Fungal Growth, detection method Absorption (OD530), plate type 384well, NBS, CORNING #3640
Description: (§1) Antifungal activity against Candida albicans ATCC 90028 (CO-ADD:FG_001); MIC in YNB media using NBS plates, by OD630

Pseudomonas aeruginosa [2] = test: microbe, parasite or virus in culture; details: ATCC 27853, 18 h, ASSAY_TEST Inhibition of Bacterial Growth, detection method Absorption (OD600), MEDIA CAMHB, plate type 384well, NBS, CORNING #3640
Description: (§2) Antibacterial activity against Pseudomonas aeruginosa ATCC 27853 (CO-ADD:GN_042); MIC in CAMBH media using NBS plates, by OD(600)

Escherichia coli [3] = test: microbe, parasite or virus in culture; details: ATCC 25922, 18 h, ASSAY_TEST Inhibition of Bacterial Growth, detection method Absorption (OD600), MEDIA CAMHB, plate type 384well, NBS, CORNING #3640
Description: (§3) Antibacterial activity against Escherichia coli ATCC 25922 (CO-ADD:GN_001); MIC in CAMBH media using NBS plates, by OD(600)

Staphylococcus aureus [4] = test: microbe, parasite or virus in culture; details: ATCC 43300, 18 h, ASSAY_TEST Inhibition of Bacterial Growth, detection method Absorption (OD600), MEDIA CAMHB, plate type 384well, NBS, CORNING #3640
Description: (§4) Antibacterial activity against Staphylococcus aureus MRSA ATCC 43300 (CO-ADD:GP_020); MIC in CAMBH media, using NBS plates, by OD(600)

HEK293 = test: cells; type: functional; details: Homo sapiens, ATCC CRL1573, HEK293; ASSAY_TEST Inhibition of Cell Viability; detection method Resazurin; Fluorescence (ex560/em590); MEDIA DMEM with 10% FBS; plate type 384well; TC; CORNING #3712; time 18 hr
Acinetobacter baumannii [5] = test: microbe, parasite or virus in culture; details: ATCC 19606, 18 h, ASSAY_TEST Inhibition of Bacterial Growth, detection method Absorption (OD600), MEDIA CAMHB, plate type 384well, NBS, CORNING #3640
Description: (§5) Antibacterial activity against Acinetobacter baumannii ATCC 19606 (CO-ADD:GN_034); MIC in CAMBH media using NBS plates, by OD600

Klebsiella pneumoniae [6] = test: microbe, parasite or virus in culture; details: ATCC 700603, 18 h, ASSAY_TEST Inhibition of Bacterial Growth, detection method Absorption (OD600), MEDIA CAMHB, plate type 384well, NBS, CORNING #3640
Description: (§6) Antibacterial activity against Klebsiella pneumoniae MDR ATCC 70063 (CO-ADD:GN_003); MIC in CAMBH media using NBS plates, by OD(600)

Pseudomonas aeruginosa [7] = details: ASSAY_TEST Inhibition of Bacterial Growth; detection method Absorption (OD600); MEDIA CAMHB; plate type 384well; NBS; CORNING #3640; time 18 hr
Description: as §2

Acinetobacter baumannii [8] = details: ASSAY_TEST Inhibition of Bacterial Growth; detection method Absorption (OD600); MEDIA CAMHB; plate type 384well; NBS; CORNING #3640; time 18 hr
Description: as §5

Candida albicans [9] = details: ASSAY_TEST Inhibition of Fungal Growth; detection method Absorption (OD530); plate type 384well; NBS; CORNING #3640
Description: as §1

Klebsiella pneumoniae [10] = details: ASSAY_TEST Inhibition of Bacterial Growth; detection method Absorption (OD600); MEDIA CAMHB; plate type 384well; NBS; CORNING #3640; time 18 hr
Description: as §6

Escherichia coli [11] = details: ASSAY_TEST Inhibition of Bacterial Growth; detection method Absorption (OD600); MEDIA CAMHB; plate type 384well; NBS; CORNING #3640; time 18 hr
Description: as §3

Staphylococcus aureus [12] = details: ASSAY_TEST Inhibition of Bacterial Growth; detection method Absorption (OD600); MEDIA CAMHB; plate type 384well; NBS; CORNING #3640; time 18 hr
Description: as §4

Description for Cryptococcus neoformans: Antifungal activity against Cryptococcus neoformans H99 ATCC 208821 (CO-ADD:FG_002); MIC in YNB media using NBS plates, by Resazurin OD(600-570)

CC(c1cc(Cl)cc(Cl)c1)N(C)c1ncc2c(N)nc(N)nc2n1 (stereo unspecified)
> 10 µM: MIC (Candida albicans [1]) | MIC (Pseudomonas aeruginosa [2]) | MIC (Cryptococcus neoformans) | MIC (Escherichia coli [3]) | CC50 (HEK293) | MIC (Acinetobacter baumannii [5]) | MIC (Klebsiella pneumoniae [6])
10 µM: MIC (Staphylococcus aureus [4])

CO/C=C(/C(=O)OC)c1ccccc1Oc1cc(Oc2ccccc2C#N)ncn1 [AZOXYSTROBIN]
0.625 µM: MIC (Candida albicans [1])
> 10 µM: MIC (Pseudomonas aeruginosa [2]) | MIC (Cryptococcus neoformans) | MIC (Escherichia coli [3]) | MIC (Staphylococcus aureus [4]) | CC50 (HEK293) | MIC (Acinetobacter baumannii [5]) | MIC (Klebsiella pneumoniae [6])

Cc1nc(-c2ccccn2)nc(N2CCC(Cc3ccccc3)C2)c1Cl (stereo unspecified)
≤ 0.0781 µM: MIC (Cryptococcus neoformans)
0.156 µM: MIC (Candida albicans [1])
> 10 µM: MIC (Pseudomonas aeruginosa [2]) | MIC (Escherichia coli [3]) | MIC (Staphylococcus aureus [4]) | CC50 (HEK293) | MIC (Acinetobacter baumannii [5]) | MIC (Klebsiella pneumoniae [6])

O=C([C@@H](c1ccc(Cl)cc1)c1cccnc1)N1CCN(c2ccc(C(F)(F)F)cc2)CC1
> 10 µM: MIC (Candida albicans [1]) | MIC (Pseudomonas aeruginosa [2]) | MIC (Cryptococcus neoformans) | MIC (Escherichia coli [3]) | MIC (Staphylococcus aureus [4]) | CC50 (HEK293) | MIC (Acinetobacter baumannii [5]) | MIC (Klebsiella pneumoniae [6])

COc1cc(NC(C)CCCN)c2ncccc2c1.O=P(O)(O)O.O=P(O)(O)O (stereo unspecified) [PRIMAQUINE PHOSPHATE]
> 10 µM: MIC (Cryptococcus neoformans) | CC50 (HEK293)
10 µM: MIC (Staphylococcus aureus [12])
>10 µM: MIC (Pseudomonas aeruginosa [7]) | MIC (Acinetobacter baumannii [8]) | MIC (Candida albicans [9]) | MIC (Klebsiella pneumoniae [10]) | MIC (Escherichia coli [11])

CCc1c(C)nc(-n2nc(C)cc2NC(=O)c2ccccc2SC)[nH]c1=O
> 10 µM: MIC (Candida albicans [1]) | MIC (Pseudomonas aeruginosa [2]) | MIC (Cryptococcus neoformans) | MIC (Escherichia coli [3]) | MIC (Staphylococcus aureus [4]) | CC50 (HEK293) | MIC (Acinetobacter baumannii [5]) | MIC (Klebsiella pneumoniae [6])

COc1ccc(OC)c(NCc2ccc3nc(N)nc(N)c3c2Cl)c1
10 µM: MIC (Klebsiella pneumoniae [6])
> 10 µM: MIC (Candida albicans [1]) | MIC (Cryptococcus neoformans) | CC50 (HEK293) | MIC (Acinetobacter baumannii [5])
2.5 µM: MIC (Pseudomonas aeruginosa [2]) | MIC (Escherichia coli [3])
0.625 µM: MIC (Staphylococcus aureus [4])

C[C@H]1COc2c(N3CCN(C)CC3)c(F)cc3c(=O)c(C(=O)O)cn1c23.C[C@H]1COc2c(N3CCN(C)CC3)c(F)cc3c(=O)c(C(=O)O)cn1c23.O [LEVOFLOXACIN]
<=0.0781 uM: MIC (Escherichia coli [11])
> 10 µM: MIC (Cryptococcus neoformans) | CC50 (HEK293)
0.625 µM: MIC (Pseudomonas aeruginosa [7]) | MIC (Staphylococcus aureus [12])
2.5 µM: MIC (Acinetobacter baumannii [8]) | MIC (Klebsiella pneumoniae [10])
>10 µM: MIC (Candida albicans [9])

O=C(Nc1ccc(C(F)(F)F)c(C(F)(F)F)c1)c1cc(Cl)ccc1O
> 10 µM: MIC (Candida albicans [1]) | MIC (Pseudomonas aeruginosa [2]) | MIC (Cryptococcus neoformans) | MIC (Escherichia coli [3]) | MIC (Staphylococcus aureus [4]) | CC50 (HEK293) | MIC (Acinetobacter baumannii [5]) | MIC (Klebsiella pneumoniae [6])

O=C(Nc1nnc(-c2ccc(Cl)cc2)o1)c1cccc(C(F)(F)F)c1
> 10 µM: MIC (Candida albicans [1]) | MIC (Pseudomonas aeruginosa [2]) | MIC (Cryptococcus neoformans) | MIC (Escherichia coli [3]) | MIC (Staphylococcus aureus [4]) | CC50 (HEK293) | MIC (Acinetobacter baumannii [5]) | MIC (Klebsiella pneumoniae [6])

O=C(COc1cccc(F)c1)Nc1nc(-c2ccccn2)cs1
> 10 µM: MIC (Candida albicans [1]) | MIC (Pseudomonas aeruginosa [2]) | MIC (Cryptococcus neoformans) | MIC (Escherichia coli [3]) | MIC (Staphylococcus aureus [4]) | CC50 (HEK293) | MIC (Acinetobacter baumannii [5]) | MIC (Klebsiella pneumoniae [6])

O=C(c1ccco1)N(CCCn1ccnc1)c1nc2c(Cl)cccc2s1
> 10 µM: MIC (Candida albicans [1]) | MIC (Pseudomonas aeruginosa [2]) | MIC (Cryptococcus neoformans) | MIC (Escherichia coli [3]) | MIC (Staphylococcus aureus [4]) | CC50 (HEK293) | MIC (Acinetobacter baumannii [5]) | MIC (Klebsiella pneumoniae [6])
